Test results published in patent US20040152708A1, “Trans-9,10-dehydroepothilone C and D, analogs thereof and methods of making the same” (priority 2002, published 2004).
Converted amounts (≈) assume the structure as drawn.

Legend:
[1] = tested on: Human non-small cell lung cancer cell line A549; experiment: SRB cytotoxicity assay, A549; assay type: cell-based; conditions: Homo sapiens, A549, 72 h; Table 1; 3 days, SRB; read-out: IC50 A549
Procedure: (§1) Compounds of the invention may be screened for cytotoxicity using conventional assays well known to those skilled in the art. For example, cytotoxicity of the compounds may be determined by the SRB assay as disclosed in Skehan et al., J. Natl. Cancer Inst. 82:1107-1112 (1990), which is incorporated herein by reference. In the SRB assay, the following cultured cells are trypsinized, counted and diluted to the following concentrations per 100 μl with growth medium: MCF-7, 5000; NCI/ADR-Res, 7500; NCI-H460, 5000; A549, 5000; Skov3, 7500; and SF-268, 7500. The cells are seeded at 100 μl/well in 96-well microtiter plates. Twenty-four hours later, 100 μl of a test epothilone compound of the invention (ranging in concentration from 1000 nM to 0.001 nM diluted in growth medium) is added to each well. After incubation, with the compound for a period of days, the cells are fixed with 100 μl of 10% trichloroacetic acid (“TCA”) at 4 degrees for 1 hour, and stained with 0.2% sulforhodamine B (SRB)/1% acetic acid, and the bound SRB is then extracted with 200 μl of 10 mM Tris base. The amount of bound dye is determined by OD 515 nm, which correlates to the total cellular protein contents. The data is analyzed using standard statistical methodologies (such as those available with the software sold as KALEIDA GRAPH® by Synergy Software of Reading, Pa.) and the IC50s are calculated.
(§2) Human breast carcinoma cell line MCF-7, multi-drug resistant breast carcinoma cell line NCI/ADR, were obtained from the National Cancer Institute. Human non-small cell lung cancer cell line A549 and human ovarian cancer cell line SKOV-3 were obtained from American Type Culture Collection (Manassas, Va.). All cell lines were maintained in RPMI-1640 medium (Gibco/BRL, Rockville, Md.) supplemented with 2 mM L-glutamine, 25 mM HEPES and 10% FBS (Hyclone, Logan, Utah). Cells were maintained in a humidified incubator at 37° C. in 5% CO2.
(§3) Tumor cells were seeded in 100 μl at 5000 (MCF-7), 7500 (NCI/ADR), 5000 (A549) and 7500 (SKOV3) cells per well in 96-well plates. Cells were allowed to adhere for 24 hours. Each compound ranging from 0.001 to 1000 nM in 100 μl was added to cells in duplicate wells. After 3 days, cells were fixed at 4° C. for 1 hour with 10% trichloroacetic acid and then stained with 0.2% sulforhodamine B (SRB)/1% acetic acid for 20 minutes at room temperature. The unbound dye was rinsed away with 1% acetic acid, and the bounded SRB was then extracted with 200 μl of 10 mM Tris base. The absorbance was measured at 515 nm using a 96-well microtiter plate reader (Spectra Max 250, Molecular Devices). The IC50 values were calculated using a KaleidaGraph program. The experiments were performed twice.

[2] = Compound solubility in phosphate-buffered saline; assay type: physicochemical; conditions: aqueous buffer, kinetic from dmso stock; 5 μL of 20 mg/mL DMSO stock in 95 μL phosphate-buffered saline, 0.45 micron filter, HPLC
Procedure: Compound solubility was determined as follows: 5 μL of stock solution (at 20 mg/mL in DMSO) was added to 95 μL of phosphate-buffered saline. After being vortexed for about 10 seconds, the solution/suspension was filtered through a 0.45 micron filter and the amount of analyte was quantitated by HPLC. Solubilities (mg/mL) determined were as follows: epothilone D, <0.06; trans-9,10-dehydroepothilone D, <0.06; 21-OH-26-F3-trans-9,10-dehydroepothilone D, 0.1; 21-amino-trans-9,10-dehydroepothilone D, >0.6; 21-amino-26-F3-trans-9,10-dehydroepothilone D, >0.6; 26-F3-trans-9,10-dehydroepothilone D, <0.06; 21-OH-trans-9,10-dehydroepothilone D, 0.1; KOSN 1635, <0.02; KOSN 1632, 0.12.

[3] = biological target: T1, CYP2C19 (Homo sapiens, UniProt P33261); experiment: Cytochrome P450 inhibition, CYP2C19; assay type: in vitro ADME; conditions: human
T1 construct: purchased BD GenTest, Woburn, Mass

[4] = tested on: multi-drug resistant breast carcinoma cell line NCI/ADR; experiment: SRB cytotoxicity assay, NCI/ADR; assay type: cell-based, human; conditions: Homo sapiens, NCI/ADR-RES, 72 h; Table 1; 3 days, SRB; read-out: IC50 NCI/ADR
Procedure: as §1, §2, §3

[5] = biological target: T2, CYP2C9 (Homo sapiens, UniProt P11712); experiment: Cytochrome P450 inhibition, CYP2C9; assay type: in vitro ADME; conditions: human
T2 construct: purchased BD GenTest, Woburn, Mass

[6] = Half-life in human plasma; conditions: fresh human plasma
Procedure: (§4) Half-lives of compounds in fresh mouse and human plasma were determined by dissolving the compounds in DMSO and adding aliquots to samples of mouse or human plasma. At Time Zero, aliquotted 75 μl from each sample and added 150 μl of acetonitrile. Centrifuged the white precipitate at 13500 rpm for 3 minutes. Transferred all the clear supernatant into another microcentrifuge tube and repeated the centrifuging step (13500 rpm/3 min). Carefully pipetted 150 μl of the clear supernatant into labeled HPLC sample tubes and tried to avoid pipetting any protein pellets. The samples were analyzed by HPLC to measure remaining compound at each time point by comparison with authentic standards.

[7] = Half-life in mouse plasma; conditions: fresh mouse plasma
Procedure: as §4, with “Half-lives of compounds in fresh mouse and human plasma were determined by dissolving the compounds in DMSO and adding aliquots to samples of mouse or human plasma.” left out

[8] = tested on: Human breast carcinoma cell line MCF-7; experiment: SRB cytotoxicity assay, MCF-7; assay type: cell-based; conditions: Homo sapiens, MCF7, 72 h; Table 1; 3 days, SRB; read-out: IC50 MCF-7
Procedure: as §1, §2, §3

[9] = biological target: T3, CYP3A4 (Homo sapiens, UniProt P08684); experiment: Cytochrome P450 inhibition (BD GenTest kit, BFC substrate), CYP3A4; assay type: in vitro ADME
T3 construct: purchased BD GenTest, Woburn, Mass
Source text: Following the procedure of Examples 39 (when R=methyl) and 42 (when R=CF3), the additional compounds shown in Table 2 were made by replacing (2-(tert-butyldimethyl-silyloxy)-methylthiazol-4-yl)methyltri-n-butyl-phosphonium chloride with the corresponding phosphonium chloride. Cytotoxicity data (Table 2) was obtained as described in Example 48. Cytochrome P450 inhibition data (Table 3) was obtained using the initial rate method against BFC substrate.
Cytochrome P450 inhibition measurements were performed using a commercially-available kit (BD GenTest, Woburn, Mass.), using BFC as substrate against CYP3A4.

[10] = Plasma protein binding (ultrafiltration); assay type: in vitro ADME; conditions: mouse or human plasma (species not given), 37° C.
Procedure: Plasma protein binding studies were performed as follows. Compounds were dissolved in DMSO, then diluted into either fresh or thawed samples of mouse or human plasma and incubated at 37° C. Time points of 50 μL were mixed with 100 μl of acetonitrile and centrifuged at ˜14000 rpm for 3 minutes. A 100 μL aliquot was removed from the supernatant and set aside for analysis to indicate compound in the total fraction. The remaining supernatant was transferred onto a Microcon ultrafiltration device fitted with a YM10 membrane and centrifuged to separate protein-bound material. A 50 μL aliquot of the protein-free filtrate was mixed with 100 μL of acetonitrile, centrifuged at ˜14000 rpm for 3 minutes, then 100 μL of the supernatant was collected and analyzed to determine the amount of compound not protein bound. The amount of compound in the total sample and in the protein-free fraction were determined by HPLC analysis against authentic standards.

[11] = tested on: human ovarian cancer cell line SKOV-3; experiment: SRB cytotoxicity assay, SKOV3; assay type: cell-based; conditions: Homo sapiens, SK-OV-3, 72 h; Table 1; 3 days, SRB; read-out: IC50 SKOV3
Procedure: as §1, §2, §3

T2 sequence (P11712 whole entry): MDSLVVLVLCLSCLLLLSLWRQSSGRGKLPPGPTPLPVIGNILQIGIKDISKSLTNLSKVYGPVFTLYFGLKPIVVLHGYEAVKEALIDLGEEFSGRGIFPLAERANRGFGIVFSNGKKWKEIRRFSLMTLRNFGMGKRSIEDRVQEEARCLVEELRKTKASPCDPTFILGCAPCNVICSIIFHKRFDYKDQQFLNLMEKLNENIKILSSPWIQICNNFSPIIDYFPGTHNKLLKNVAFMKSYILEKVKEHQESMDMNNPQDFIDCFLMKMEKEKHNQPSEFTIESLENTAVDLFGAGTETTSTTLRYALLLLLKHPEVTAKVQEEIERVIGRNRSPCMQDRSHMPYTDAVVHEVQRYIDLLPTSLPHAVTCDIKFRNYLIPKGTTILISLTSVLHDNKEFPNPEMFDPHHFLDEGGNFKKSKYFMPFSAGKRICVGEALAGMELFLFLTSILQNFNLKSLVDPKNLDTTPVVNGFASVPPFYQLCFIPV
T1 sequence (P33261 whole entry): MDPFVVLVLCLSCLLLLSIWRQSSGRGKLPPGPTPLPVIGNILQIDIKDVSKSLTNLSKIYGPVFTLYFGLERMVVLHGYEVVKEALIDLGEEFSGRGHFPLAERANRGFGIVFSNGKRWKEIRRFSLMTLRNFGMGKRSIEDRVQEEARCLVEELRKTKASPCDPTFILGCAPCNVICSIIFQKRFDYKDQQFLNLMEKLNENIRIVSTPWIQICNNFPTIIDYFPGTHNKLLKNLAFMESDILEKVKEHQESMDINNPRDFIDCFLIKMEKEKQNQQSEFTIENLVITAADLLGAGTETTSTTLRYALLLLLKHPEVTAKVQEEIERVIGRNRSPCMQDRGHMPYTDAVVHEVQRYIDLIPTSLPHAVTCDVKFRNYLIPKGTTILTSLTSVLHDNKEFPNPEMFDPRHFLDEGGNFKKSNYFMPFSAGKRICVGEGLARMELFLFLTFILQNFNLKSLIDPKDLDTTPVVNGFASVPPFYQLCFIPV
T3 sequence (P08684 whole entry): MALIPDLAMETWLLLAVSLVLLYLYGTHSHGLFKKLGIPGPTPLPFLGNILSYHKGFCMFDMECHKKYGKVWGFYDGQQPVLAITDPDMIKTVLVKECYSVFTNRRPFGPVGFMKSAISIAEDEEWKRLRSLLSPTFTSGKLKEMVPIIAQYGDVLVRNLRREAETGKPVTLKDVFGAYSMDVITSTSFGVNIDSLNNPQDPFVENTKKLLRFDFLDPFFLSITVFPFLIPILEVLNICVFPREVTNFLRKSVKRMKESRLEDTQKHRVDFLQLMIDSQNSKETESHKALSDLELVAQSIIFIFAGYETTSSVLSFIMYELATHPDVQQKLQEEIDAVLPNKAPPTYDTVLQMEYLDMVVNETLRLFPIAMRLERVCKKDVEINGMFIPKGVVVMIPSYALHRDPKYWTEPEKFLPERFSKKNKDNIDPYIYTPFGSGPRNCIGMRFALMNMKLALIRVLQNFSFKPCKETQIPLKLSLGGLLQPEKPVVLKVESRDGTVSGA

SMILES	IC50 [1]	solubility [2]	IC50 [3]	IC50 [4]	IC50 [5]	half-life [6]	half-life [7]	IC50 [8]	IC50 [9]	percentage of compound protein bound [10]	IC50 [11]
C/C1=C/C[C@@H](/C(C)=C/c2csc(CO)n2)OC(=O)C[C@H](O)C(C)(C)C(=O)[C@H](C)[C@@H](O)[C@@H](C)/C=C/C1 [21-OH 9,10-dehydroepothilone D, 21-hydroxy-9,10-dehydro-epothilone D]	0.0038 µM	0.1 mg/mL (≈ 198 µM)	5.6 µM	0.014 µM	22 µM	> 24 h	17.6 h	0.0023 µM	0.8 µM	94.2%	0.0057 µM
C/C(=C\c1csc(CO)n1)[C@@H]1C/C=C(/C(F)(F)F)C/C=C/[C@H](C)[C@H](O)[C@@H](C)C(=O)C(C)(C)[C@@H](O)CC(=O)O1 [21-hydroxy-9,10-dehydro-26-trifluoroepothilone D]	0.0061 µM	0.1 mg/mL (≈ 179 µM)	20.5 µM	0.065 µM	17.3 µM	> 24 h	6.32 h	0.0036 µM	1 µM	92.8%	0.0079 µM
C/C1=C/C[C@@H](/C(C)=C/c2csc(C)n2)OC(=O)C[C@H](O)C(C)(C)C(=O)[C@H](C)[C@@H](O)[C@@H](C)CCC1 [Epothilone D, Desoxyepothilone B, reference compound]	0.025 µM	< 0.06 mg/mL	1.6 to 3.4 µM	0.023 µM	9 to 12 µM	> 24 h	0.817 h	0.0068 µM	2.4 µM	98.5%	0.039 µM
C/C1=C/C[C@@H](/C(C)=C/c2ccccn2)OC(=O)C[C@H](O)C(C)(C)C(=O)[C@H](C)[C@@H](O)[C@@H](C)/C=C/C1 [KOSN 1632, 17-des(2-methyl-4-thiazolyl)-17-(2-pyridyl)-9,10-dehydropeothilone D]	0.0033 µM	0.12 mg/mL (≈ 256 µM)	3.05 µM	0.0046 µM	15 µM	> 24 h	0.467 h	0.00087 µM	2.52 µM	89.4%	0.0044 µM
C/C1=C/C[C@@H](/C(C)=C/c2nc3ccccc3s2)OC(=O)C[C@H](O)C(C)(C)C(=O)[C@H](C)[C@@H](O)[C@@H](C)/C=C/C1 [KOSN 1635, 17-des(2-methyl-4-thiazolyl)-17-(2-benzothiazolyl)-9,10-dehydropeothilone D]	0.0042 µM	< 0.02 mg/mL	3.27 µM	0.0056 µM	4.1 µM	> 24 h	0.967 h	0.0011 µM	3.12 µM	99.7%	0.0034 µM
